We go through 15 molecules from patent publication US12486290B2, “Isoindolinone and indazole compounds for the degradation of EGFR” (C4 THERAPEUTICS, INC., priority 2019, dated 2025).

Test [1] concerns the target T1, EGFR T790M/L858R (NCI-H1975 cells) (Homo sapiens, UniProt P00533, L858R/T790M).
T1 construct: NCI-H1975 (harboring EGFR heterozygous T790M/L858R mutations); host or cells: NCI-H1975
In words: EGFR (L858R) degradation analysis, Total EGFR (L858R) HTRF, NCI-H1975 cells. It is filed as cell-based. The note with it: 6 hours. An excerpt: (§1) NCI-H1975 (harboring EGFR heterozygous T790M/L858R mutations) and NCI-H3255 (harboring EGFR heterozygous L858R mutation) were purchased from ATCC and NCI, respectively. NCI-H1975+CS (harboring EGFR heterozygous T/790M/L858R/C797S mutations) was generated using CRISPR technology to introduce the additional C797S mutation by Horizon Discovery. RPMI 1640 no-phenol red medium and fetal bovine serum (FBS) were purchased from Gibco (Grand Island, NY, USA). Cell culture flasks and 384-well microplates were acquired from VWR (Radnor, PA, USA). Total EGFR (L858R) HTRF assay kits were purchased from Cisbio (Bedford, MA, USA).
(§2) Degradation of EGFR protein containing L858R mutation was determined based on quantification of FRET signal using Total EGFR (L858R) HTRF assay kit. Test compounds were added to the 384-well plate from a top concentration of 10 μM with 11 points, half log titration in duplicates. NCI-H1975, NCI-H1975+CS or NCI-H3255 cells were added into 384-well plates at a cell density of 10000, 10000 or 1000 cells per well, respectively. The plates were kept at 37° C. with 5% CO2 for 6 hours. Cells treated in the absence of the test compound were the negative control. Positive control was set by wells containing all reagents but no cells. FRET signal was acquired on EnVision™ Multilabel Reader (PerkinElmer, Santa Clara, CA, USA).
(In general: In TR-FRET formats the signal depends on donor and acceptor labels being close together.)

Test [2] deals with T2, EGFR L858R (NCI-H3255 cells) (Homo sapiens, UniProt P00533, L858R).
T2 construct: NCI-H3255 (harboring EGFR heterozygous L858R mutation); host or cells: NCI-H3255
Briefly: EGFR (L858R) degradation analysis, Total EGFR (L858R) HTRF, NCI-H3255 cells. In kind it is cell-based. The note with it: 6 hours.
From the text: as §1, §2

Each structure is given as a SMILES string.

T2 sequence (P00533 25-1210 L858R): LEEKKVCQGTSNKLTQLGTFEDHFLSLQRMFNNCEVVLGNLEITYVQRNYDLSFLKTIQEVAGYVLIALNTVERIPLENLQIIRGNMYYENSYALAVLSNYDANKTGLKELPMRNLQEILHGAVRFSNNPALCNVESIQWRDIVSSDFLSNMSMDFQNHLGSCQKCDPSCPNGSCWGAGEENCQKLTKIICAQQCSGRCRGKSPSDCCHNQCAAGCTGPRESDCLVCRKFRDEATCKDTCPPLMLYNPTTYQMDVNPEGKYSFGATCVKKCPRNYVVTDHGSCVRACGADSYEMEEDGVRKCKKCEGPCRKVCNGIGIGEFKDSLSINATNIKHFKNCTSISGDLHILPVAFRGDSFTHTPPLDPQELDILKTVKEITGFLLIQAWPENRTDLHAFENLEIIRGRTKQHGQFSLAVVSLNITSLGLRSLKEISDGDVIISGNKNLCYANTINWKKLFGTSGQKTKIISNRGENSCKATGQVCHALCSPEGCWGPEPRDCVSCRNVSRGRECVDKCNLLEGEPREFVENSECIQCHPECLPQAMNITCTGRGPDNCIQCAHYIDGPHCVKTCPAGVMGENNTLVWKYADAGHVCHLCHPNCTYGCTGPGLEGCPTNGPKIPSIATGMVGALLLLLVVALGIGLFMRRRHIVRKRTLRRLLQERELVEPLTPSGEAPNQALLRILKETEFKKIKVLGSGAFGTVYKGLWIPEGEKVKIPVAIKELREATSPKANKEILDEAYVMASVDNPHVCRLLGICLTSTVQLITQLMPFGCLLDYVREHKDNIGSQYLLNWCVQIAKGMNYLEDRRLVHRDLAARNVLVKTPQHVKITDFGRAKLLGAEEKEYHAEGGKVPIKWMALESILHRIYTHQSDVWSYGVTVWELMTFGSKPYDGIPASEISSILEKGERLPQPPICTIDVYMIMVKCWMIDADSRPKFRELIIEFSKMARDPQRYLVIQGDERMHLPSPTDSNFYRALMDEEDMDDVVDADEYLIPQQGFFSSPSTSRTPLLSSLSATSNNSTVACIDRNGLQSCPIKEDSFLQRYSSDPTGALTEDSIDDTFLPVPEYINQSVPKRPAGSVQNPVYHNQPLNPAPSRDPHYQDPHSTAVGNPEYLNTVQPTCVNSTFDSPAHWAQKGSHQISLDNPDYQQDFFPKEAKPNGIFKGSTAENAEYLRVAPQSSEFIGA
T1 sequence (P00533 25-1210 T790M/L858R): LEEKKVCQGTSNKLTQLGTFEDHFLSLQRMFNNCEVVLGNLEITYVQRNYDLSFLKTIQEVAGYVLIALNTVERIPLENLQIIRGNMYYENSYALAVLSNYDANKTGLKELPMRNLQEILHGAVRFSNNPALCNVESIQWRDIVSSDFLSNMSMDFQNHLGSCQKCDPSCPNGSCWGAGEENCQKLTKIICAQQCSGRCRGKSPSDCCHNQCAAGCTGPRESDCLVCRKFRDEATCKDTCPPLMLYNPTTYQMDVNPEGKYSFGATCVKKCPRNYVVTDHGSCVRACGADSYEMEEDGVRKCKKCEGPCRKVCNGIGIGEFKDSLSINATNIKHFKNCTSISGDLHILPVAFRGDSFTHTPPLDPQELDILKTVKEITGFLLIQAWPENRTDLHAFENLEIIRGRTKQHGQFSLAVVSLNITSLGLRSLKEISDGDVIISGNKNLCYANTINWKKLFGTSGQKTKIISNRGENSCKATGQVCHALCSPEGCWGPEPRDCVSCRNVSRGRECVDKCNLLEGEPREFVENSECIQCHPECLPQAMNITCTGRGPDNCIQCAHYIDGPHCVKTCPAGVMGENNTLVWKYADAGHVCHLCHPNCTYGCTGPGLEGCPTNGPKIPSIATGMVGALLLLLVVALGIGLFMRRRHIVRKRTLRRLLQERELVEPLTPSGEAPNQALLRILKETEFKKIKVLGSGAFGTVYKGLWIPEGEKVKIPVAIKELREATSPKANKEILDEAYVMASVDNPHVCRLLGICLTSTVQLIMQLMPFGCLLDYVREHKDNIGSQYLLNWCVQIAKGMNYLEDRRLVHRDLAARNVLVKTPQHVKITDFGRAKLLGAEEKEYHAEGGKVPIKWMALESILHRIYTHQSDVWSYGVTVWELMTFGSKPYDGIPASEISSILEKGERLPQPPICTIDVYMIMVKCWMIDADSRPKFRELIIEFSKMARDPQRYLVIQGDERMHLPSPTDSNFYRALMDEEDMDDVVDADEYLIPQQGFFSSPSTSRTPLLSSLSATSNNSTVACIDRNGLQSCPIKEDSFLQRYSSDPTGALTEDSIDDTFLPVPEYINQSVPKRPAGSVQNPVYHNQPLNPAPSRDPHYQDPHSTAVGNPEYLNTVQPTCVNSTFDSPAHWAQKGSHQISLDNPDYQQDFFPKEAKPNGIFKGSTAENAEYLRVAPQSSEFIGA

Consider `O=C1CCC(Nc2ccc(C3CCN(CC(=O)N4CCN(c5ccc(-c6cc(F)c7c(c6)C(=O)N(C(C(=O)Nc6nccs6)c6ncn8c6CCC8)C7)cc5)CC4)CC3)nc2)C(=O)N1` (stereo not drawn) [Compound 11, 2-(6,7-dihydro-5H-pyrrolo[1,2-c]imidazol-1-yl)-2-[6-[4-[4-[2-[4-[5-[(2,6-dioxo-3-piperidyl)amino]-2-pyridyl]-1-piperidyl]acetyl]piperazin-1-yl]phenyl]-4-fluoro-1-oxo-isoindolin-2-yl]-N-thiazol-2-yl-acetamide], for which the figures for the DC50 in test [1] and in test [2] were 20 nM and 21 nM, respectively.

Take `Cn1nc(N2CCC(=O)NC2=O)c2ccc(C3CCN(CC(=O)N4CCN(c5ccc(-c6cc(F)c7cn(C(C(=O)Nc8nccs8)c8ncn9c8CCC9)nc7c6)cn5)CC4)CC3)cc21` (stereo not drawn) [Compound 67, 2-(6,7-dihydro-5H-pyrrolo[1,2-c]imidazol-1-yl)-2-[6-[6-[4-[2-[4-[3-(2,4-dioxohexahydropyrimidin-1-yl)-1-methyl-indazol-6-yl]-1-piperidyl]acetyl]piperazin-1-yl]-3-pyridyl]-4-fluoro-indazol-2-yl]-N-thiazol-2-yl-acetamide]: the DC50 (usually the concentration at which degradation of the target reaches its halfway point) in test [1] came to 27 nM; in test [2], 50 nM.

Turning to `O=C1CC[C@H](Nc2ccc(C3CCN(CC(=O)N4CCN(c5ccc(-c6cc(F)c7c(c6)C(=O)N(C(C(=O)Nc6nccs6)c6ncn8c6CCC8)C7)cn5)CC4)CC3)c(F)c2)C(=O)N1` (stereo partly drawn) [Compound 27, 2-(6,7-dihydro-5H-pyrrolo[1,2-c]imidazol-1-yl)-2-[6-[6-[4-[2-[4-[4-[[(3S)-2,6-dioxo-3-piperidyl]amino]-2-fluoro-phenyl]-1-piperidyl]acetyl]piperazin-1-yl]-3-pyridyl]-4-fluoro-1-oxo-isoindolin-2-yl]-N-thiazol-2-yl-acetamide], the DC50 amounted to 36 nM in test [1] and 20 nM in test [2].

Regarding `O=C1CC[C@H](Nc2ccc(C3CCN(CC(=O)N4CCC(NC(=O)c5ccc(C#Cc6cc(F)c7c(c6)C(=O)N(C(C(=O)Nc6nccs6)c6ncn8c6CCC8)C7)cn5)CC4)CC3)c(F)c2)C(=O)N1` (stereo partly drawn) [Compound 4, 5-[2-[2-[1-(6,7-dihydro-5H-pyrrolo[1,2-c]imidazol-1-yl)-2-oxo-2-(thiazol-2-ylamino)ethyl]-7-fluoro-3-oxo-isoindolin-5-yl]ethynyl]-N-[1-[2-[4-[4-[[(3S)-2,6-dioxo-3-piperidyl]amino]-2-fluoro-phenyl]-1-piperidyl]acetyl]-4-piperidyl]pyridine-2-carboxamide], the DC50 was found to be 10 nM in test [1] and 9 nM in test [2].

As for `O=C1CCC(Nc2ccc(C3CCN(CC(=O)N4CCN(Cc5ccc(-c6cc(F)c7c(c6)C(=O)N(C(C(=O)Nc6nccs6)c6ncn8c6CCC8)C7)cc5)CC4)CC3)cc2)C(=O)N1` (stereo not drawn) [Compound 56, 2-(6,7-dihydro-5H-pyrrolo[1,2-c]imidazol-1-yl)-2-[6-[4-[[4-[2-[4-[4-[(2,6-dioxo-3-piperidyl)amino]phenyl]-1-piperidyl]acetyl]piperazin-1-yl]methyl]phenyl]-4-fluoro-1-oxo-isoindolin-2-yl]-N-thiazol-2-yl-acetamide], the DC50 came out at 20 nM in test [1] and 14 nM in test [2].

With `O=C1CC[C@H](Nc2ccc(C3CCN(CC(=O)N4CCC(c5cnn(-c6cc(F)c7c(c6)C(=O)N(C(C(=O)Nc6nccs6)c6ncn8c6CCC8)C7)c5)CC4)CC3)cc2)C(=O)N1` (stereo partly drawn) [Compound 29, 2-(6,7-dihydro-5H-pyrrolo[1,2-c]imidazol-1-yl)-2-[6-[4-[1-[2-[4-[4-[[(3S)-2,6-dioxo-3-piperidyl]amino]phenyl]-1-piperidyl]acetyl]-4-piperidyl]pyrazol-1-yl]-4-fluoro-1-oxo-isoindolin-2-yl]-N-thiazol-2-yl-acetamide], the 50% degradation concentration (DC50) in test [1] is 24 nM; in test [2] it was 20 nM.

Take `O=C1CC[C@H](Nc2ccc(C3CCN(CC(=O)N4CCN(c5ccc(-c6cc(F)c7cn(C(C(=O)Nc8nccs8)c8ncn9c8CCC9)nc7c6)cn5)CC4)CC3)c(F)c2)C(=O)N1` (stereo partly drawn) [Compound 68, 2-(6,7-dihydro-5H-pyrrolo[1,2-c]imidazol-1-yl)-2-(6-(6-(4-(2-(4-(4-(((S)-2,6-dioxopiperidin-3-yl)amino)-2-fluorophenyl)piperidin-1-yl)acetyl)piperazin-1-yl)pyridin-3-yl)-4-fluoro-2H-indazol-2-yl)-N-(thiazol-2-yl)acetamide]: the DC50 was determined as 28 nM in test [1] and 34 nM in test [2].

Take `O=C1CC[C@H](Nc2ccc(C3CCN(CC(=O)N4CCC(n5cc(-c6cc(F)c7c(c6)C(=O)N(C(C(=O)Nc6nccs6)c6ncn8c6CCC8)C7)nn5)CC4)CC3)cc2)C(=O)N1` (stereo partly drawn) [Compound 30, 2-(6,7-dihydro-5H-pyrrolo[1,2-c]imidazol-1-yl)-2-(6-(1-(1-(2-(4-(4-(((S)-2,6-dioxopiperidin-3-yl)amino)phenyl)piperidin-1-yl)acetyl)piperidin-4-yl)-1H-1,2,3-triazol-4-yl)-4-fluoro-1-oxoisoindolin-2-yl)-N-(thiazol-2-yl)acetamide]: the values for the DC50 in test [1] and in test [2] were 15 nM and 35 nM, respectively.

On to `O=C1CCC(Nc2ccc(C3CCN(C(=O)C(=O)N4CCC(Oc5ccc(-c6cc(F)c7c(c6)C(=O)N(C(C(=O)Nc6nccs6)c6ncn8c6CCC8)C7)cc5)CC4)CC3)cc2)C(=O)N1` (stereo not drawn) [Compound 40, 2-(6,7-dihydro-5H-pyrrolo[1,2-c]imidazol-1-yl)-2-[6-[4-[[1-[2-[4-[4-[(2,6-dioxo-3-piperidyl)amino]phenyl]-1-piperidyl]-2-oxo-acetyl]-4-piperidyl]oxy]phenyl]-4-fluoro-1-oxo-isoindolin-2-yl]-N-thiazol-2-yl-acetamide], for which the DC50 in test [1] was determined as 21 nM; in test [2] it was 14 nM.

On to `O=C1CCC(Nc2ccc(C3CCN(CC(=O)N4CCN(c5ccc(-c6cc(F)c7cn(C(C(=O)Nc8nccs8)c8ncn9c8CCC9)nc7c6)cn5)CC4)CC3)nc2)C(=O)N1` (stereo not drawn) [Compound 66, 2-(6,7-dihydro-5H-pyrrolo[1,2-c]imidazol-1-yl)-2-[6-[6-[4-[2-[4-[5-[(2,6-dioxo-3-piperidyl)amino]-2-pyridyl]-1-piperidyl]acetyl]piperazin-1-yl]-3-pyridyl]-4-fluoro-indazol-2-yl]-N-thiazol-2-yl-acetamide], for which the results for the DC50 in test [1] and in test [2] were 33 nM and 31 nM, respectively.

Consider `O=C1CC[C@H](Nc2ccc(C3CCN(CC(=O)N4CCC(n5cc(-c6cc(F)c7c(c6)C(=O)N(C(C(=O)Nc6nccs6)c6ncn8c6CCC8)C7)cn5)CC4)CC3)cc2)C(=O)N1` (stereo partly drawn) [Compound 28, 2-(6,7-dihydro-5H-pyrrolo[1,2-c]imidazol-1-yl)-2-[6-[1-[1-[2-[4-[4-[[(3S)-2,6-dioxo-3-piperidyl]amino]phenyl]-1-piperidyl]acetyl]-4-piperidyl]pyrazol-4-yl]-4-fluoro-1-oxo-isoindolin-2-yl]-N-thiazol-2-yl-acetamide], for which the DC50 in test [1] came out at 16 nM; in test [2], 17 nM.

In the case of `O=C1CC[C@H](Nc2ccc(C3CCN(CC(=O)N4CCC(c5ccc(-c6cc(F)c7c(c6)C(=O)N(C(C(=O)Nc6nccs6)c6ncn8c6CCC8)C7)cc5)CC4)CC3)cc2)C(=O)N1` (stereo partly drawn) [Compound 22, 2-(6,7-dihydro-5H-pyrrolo[1,2-c]imidazol-1-yl)-2-(6-(4-(1-(2-(4-(4-(((S)-2,6-dioxopiperidin-3-yl)amino)phenyl)piperidin-1-yl)acetyl)piperidin-4-yl)phenyl)-4-fluoro-1-oxoisoindolin-2-yl)-N-(thiazol-2-yl)acetamide], the DC50 in test [1] came out at 31 nM; in test [2], 15 nM.

As for `O=C1CCC(Nc2cccc(C3CCN(CC(=O)N4CCN(c5ccc(-c6cc(F)c7c(c6)C(=O)N(C(C(=O)Nc6nccs6)c6ncn8c6CCC8)C7)cc5)CC4)CC3)c2)C(=O)N1` (stereo not drawn) [Compound 16, 2-(6,7-dihydro-5H-pyrrolo[1,2-c]imidazol-1-yl)-2-(6-(4-(4-(2-(4-(3-((2,6-dioxopiperidin-3-yl)amino)phenyl)piperidin-1-yl)acetyl)piperazin-1-yl)phenyl)-4-fluoro-1-oxoisoindolin-2-yl)-N-(thiazol-2-yl)acetamide], in test [1], it took 92 nM to reach half-maximal degradation (DC50). This counts as double-digit nanomolar.

In test [1], `O=C1CCC(Nc2ccc(C3CCN(CC(=O)N4CCN(c5ccc(-c6cc(F)c7cn(C(C(=O)Nc8nccs8)c8ncn9c8CCC9)nc7c6)cn5)CC4)CC3)c(F)c2)C(=O)N1` (stereo not drawn) [Compound 64, 2-(6,7-dihydro-5H-pyrrolo[1,2-c]imidazol-1-yl)-2-[6-[6-[4-[2-[4-[4-[(2,6-dioxo-3-piperidyl)amino]-2-fluoro-phenyl]-1-piperidyl]acetyl]piperazin-1-yl]-3-pyridyl]-4-fluoro-indazol-2-yl]-N-thiazol-2-yl-acetamide] showed a DC50 of 137 nM.

Molecule `O=C1CC[C@H](Nc2ccc(C3CCN(CC(=O)N4CC[C@H](Oc5ccc(-c6cc(F)c7c(c6)C(=O)N(C(C(=O)Nc6nccs6)c6ncn8c6CCC8)C7)cc5)C4)CC3)cc2)C(=O)N1` (stereo partly drawn) [Compound 42, 2-(6,7-dihydro-5H-pyrrolo[1,2-c]imidazol-1-yl)-2-[6-[4-[(3S)-1-[2-[4-[4-[[(3S)-2,6-dioxo-3-piperidyl]amino]phenyl]-1-piperidyl]acetyl]pyrrolidin-3-yl]oxyphenyl]-4-fluoro-1-oxo-isoindolin-2-yl]-N-thiazol-2-yl-acetamide] yielded a DC50 in test [1] of 20 nM.
